Laboratory results reported in patent US11090317B2, “Aminophosphinic derivatives for preventing and treating eye inflammation” (priority 2017, dated 2021).
Entries after “also recorded” stand apart in the source; their conditions may differ.

Tests used:
[1] = system: ATF3 (activating transcription factor 3); experiment: ATF3 immuno-histology in trigeminal ganglion, inflammatory keratitis model induced by LPS; assay type: in vivo, mice; settings: LPS inflammation model; twice-daily instillation of 10 mM for 5 days
Excerpt: (§1) ATF3 (activating transcription factor 3) is a transcription factor of the family of ATF which modulates the inflammatory response of several diseases. In physiological conditions, the primary sensory neurones express very little ATF3. An increase in the number of positive neurones for ATF-3 then underlines neuronal suffering linked to an inflammatory process. In the same way, Iba1 (ionized calcium-binding adapter molecule 1) is expressed in the microglial cells activated by the presence of macrophages and thus by an inflammatory process.
(§2) Two hours after the final instillation of LPS, a mixture of 300 μL of ketamine […] (100 mg/kg of body weight) and xylazine (10 mg/kg of body weight, Virbac, France) was injected by intraperitoneal route to deeply anaesthetise the animals. After fixation, the trigeminal ganglia and the eyes were carefully dissected and post-fixated for 48 h in the same fixation mixture. Sections (40 μm) of the complex of the trigeminal sub-nucleus ([…]) were formed using a Vibratom (Leica Microsystems, Germany). The TG were placed in a 10% solution of sucrose in 1×PBS (overnight), then in a 30% solution of sucrose before freezing at −20° C. in a mixture of 7.5% gelatine and 10% sucrose. Sections (14 μm) were made in the cryostat for the TG and the eyes and conserved at −20° C. […]

[2] = system: Iba1 (ionized calcium binding adaptor molecule 1); experiment: Iba1 immuno-histology in trigeminal ganglion, inflammatory keratitis model induced by LPS; assay type: in vivo, mice; settings: LPS inflammation model; twice-daily instillation of 10 mM for 5 days
Excerpt: as §1, §2

cornea = experiment: Corneal inflammation by in vivo confocal microscopy in inflammatory model induced by LPS (corneal scratch); set-up: species or system mice C57Bl/6; settings: twice-daily instillation of 10 mM for 5 consecutive days; scratch + LPS 50 μg (1× or 2×); evaluated on the 5th day
Method: A corneal epithelial lesion (abrasion designated “scratch” in the figures) is made on the right eye of male mice C57Bl/6, 8 weeks old, using a trephine (diameter 1.5 mm) on the anaesthetised animal (isoflurane). A drop (10 μl) of LPS (50 μg) is […] deposited on the injured area and is left in contact with the cornea until the animal awakens. The experimentalist ensures the animal awakens correctly, which occurs within two minutes following the intervention.
The first topical treatment using a solution of PBS (phosphate buffer pH=7.4) (1×) or a solution of compound 1 (10 mM of compound 1 in a solution of PBS (1×)) was carried out 2 h after the instillation of LPS. This treatment was extended 2 times a day for 5 days. Four animal cages were studied:
The eye inflammation of the mice was evaluated on the 5th day using a confocal microscope in vivo. This enable images to be obtained (cellular and intercellular definition) of the cornea including the corneal epithelium, the nerve plexus, the stroma and the endothelium thanks to a capsule (Tomocap)/corneal module of the apparatus placed in contact with the cornea. The morphological changes of all the cells constituting the cornea and the corneal nerves are easily observable and quantifiable. All of the animals were anaesthetised by intraperitoneal injection (ketamine 100 mg/kg and xylazine 10 mg/kg). […]

corneal epithelium = settings: topical administration, versus non-treated corneas, cited from earlier work

Row | Structure (SMILES) | expression of ATF3 in the trigeminal ganglion versus PBS control group [1] | Iba1 in the trigeminal ganglion (coloration of activated microglial cells expressing Iba-1) versus PBS control group [2] | eye inflammation of the corneas (confocal images) compared to PBS 1× (cornea) | development of an oedema of the stroma (corneal epithelium; 12 h after treatment) | infiltration of immune cells (corneal epithelium)
1 | CC(OC(=O)N[C@@H](C)P(=O)([O-])C[C@@H](Cc1ccc(-c2ccccc2)cc1)C(=O)N[C@@H](C)C(=O)[O-])OC(=O)C(C)C.[Na+].[Na+] (some centres unmarked) [compound 1] | considerably reduces the expression of ATF3; also recorded: reduce significantly | considerably reduces the coloration of activated microglial cells expressing Iba-1; also recorded: reduce significantly | less inflammatory | – | –
2 | CN1CC[C@]23c4c5ccc(O)c4O[C@H]2[C@@H](O)C=C[C@H]3[C@H]1C5 [morphine] | – | – | – | retard the development of an oedema of the stroma | very few immune cells present
